Source: PMC5051147, “Ester Hydrolysis Differentially Reduces Aconitine-Induced Anti-hypersensitivity and Acute Neurotoxicity: Involvement of Spinal Microglial Dynorphin Expression and Implications for Aconitum Processing” (Frontiers in Pharmacology, 2016)

Tests used:
[1] = system: dynorphin A expression in spinal microglia; conditions: 2016, cited from earlier work; for Effect on dynorphin A level / expression: spinal cord and cultured primary spinal microglia, ref Li et al.
[2] = system: mechanical allodynia in spinal L5/L6 nerve–ligated neuropathic rats; assay: Mechanical allodynia (von Frey paw withdrawal threshold) after intrathecal injection in spinal nerve-ligated neuropathic rats; type: in vivo, rat
Protocol: An 18-cm polyethylene catheter (PE-10: 0.28-mm inner diameter and 0.61-mm outer diameter, Clay Adams, Parsippany, NJ, USA) with a volume of 13 μL was inserted into the lumbar level of the spinal cord as described elsewhere under inhalational isoflurane anesthesia (4% for induction and 1% for maintenance) run by an anesthesia meter (Ugo Basile Gas Anesthesia System, Comerio, Italy). Two days after recovery from anesthesia, the placement of the catheter in the spinal cord was verified by administration of 4% lidocaine (10 μL, followed by 15 μL of saline for flushing). Rats that had no motor impairment after placement of the intrathecal catheter were considered for the study, and rats that developed immediate bilateral paralysis of the hindlimbs after intrathecal administration of lidocaine were selected for the study. For intrathecal administration of the control and test articles, 10 μL of each drug was injected with a 50-μL microinjector (Shanghai Anting Micro-Injector Factory, Shanghai, China) and was flushed with 15 μL of normal saline solution.
To induce hypersensitivity to neuropathic pain, the rats were subjected to spinal nerve ligation as previously described [Kim and Chung (1992)] and [Zhang et al. (2013)]. Unilateral ligation of the L5 and L6 spinal nerves was performed under inhalational isoflurane anesthesia (4% for induction and 1% for maintenance) run by an anesthesia meter (Ugo Basile Gas Anesthesia System). The left L5 and L6 spinal nerves were isolated and tightly ligated with 6-0 silk thread. After ligation, the wound was sutured and the rats were returned to their home cages for recovery. After spinal nerve ligation, only those rats with marked unilateral allodynia to mechanical stimulation (i.e., a hindpaw withdrawal threshold of less than 8 g on the operated side) and with no major impairment were included in the study. Drug testing started 2–4 weeks after spinal nerve ligation.
To evaluate mechanical allodynia, the animals were acclimatized for at least 30 min to the test environment, namely, a plexiglass box on a metal grid (0.5 cm × 0.5 cm). The hindpaw withdrawal threshold was measured with a 2450 CE Electronic von Frey hair (IITC Life Science Inc, Woodland Hill, CA, USA). An electronic handheld transducer with a No. 15 monofilament was applied perpendicularly to the medial surface of the hindpaws with increasing force (ranging from 0.1 to 90 g) until the rat suddenly withdrew or licked the hindpaw. The lowest force that produced a withdrawal response was considered to be the threshold, which was the mean of three repeated measurements made in a 5-min interval.
The percentage of maximal possible effect (% MPE) was calculated using the following formula: (postdrug threshold in ipsilateral hindlimb – baseline threshold in ipsilateral hindlimb)/(baseline threshold in contralateral hindlimb – baseline threshold in ipsilateral hindlimb) × 100 ([Bowersox et al., 1996]). A % MPE value near 100 indicates normal mechanical thresholds (i.e., near contralateral thresholds), and a value near 0 indicates allodynia. For the dose-response curve analysis, the parameters (i.e., minimum effect; Emax, median effective concentration or dose, or median toxic or lethal dose [EC50, ED50, TD50, or LD50], and Hill coefficient [n]) were calculated from the individual dose-response curves using the Prism program (version 5.01, GraphPad Software, San Diego, CA, USA). To determine the parameters of the dose-response curves, the values of response (Y) were fitted by non-linear least-squares curves to the relation Y = a + bx, where x = [D]^n/(ED50^n + [D]^n), [C]^n/(EC50^n + [C]^n), [D]^n/(TD50^n + [D]^n) or [D]^n/(LD50^n + [D]^n), to give each value of ED50, EC50, TD50, or LD50 and b (Emax) yielding a minimum residual sum of squares of deviations from the theoretical curve ([Wang and Pang, 1993]).

[3] = intrathecal pretreatment: antiserum 1:10 or nor-BNI 100 μg 0.5 h earlier, minocycline 100 μg 4 h earlier

Compound: C=C1C2CCC3(C4C[C@H]5C6(CCC[C@@]5(C)CN(CC)C46)[C@H]3[C@H]2O)[C@@H]1O [Bullatine A]
- Effect on dynorphin A expression ([1]; microglia in the spinal cord and cultured primary microglia, ref Huang et al.): specifically stimulated dynorphin A expression

Compound: CCCCN1CCCCC1C(=O)Nc1c(C)cccc1C (stereo not drawn) [bupivacaine]
- Effect on dynorphin A level / expression [1]: did not stimulate dynorphin A expression

Compound: CCN(CC)CC(=O)Nc1c(C)cccc1C [lidocaine]
- Effect on dynorphin A level / expression [1]: did not stimulate dynorphin A expression

Compound: Oc1ccc2c3c1O[C@H]1c4[nH]c5c(c4C[C@@]4(O)[C@@H](C2)N(CC2CC2)CC[C@]314)C[C@@]1(O)[C@H]2Cc3ccc(O)c4c3[C@@]1(CCN2CC1CC1)[C@H]5O4 [nor-BNI, Nor-binaltorphimine, reference compound]
- Blockade of aconitine (100 ng) anti-allodynia [2, 3]: completely blocked aconitine-induced anti-allodynia
- Blockade of benzolyaconine (10 μg) anti-allodynia [2, 3]: completely alleviated benzolyaconine anti-allodynia
- Own effect on withdrawal responses in contralateral or ipsilateral paws ([2]; intrathecal, compared with saline control): did not affect the withdrawal responses
